Our source for the TGI values is PubChem BioAssay (NCI).

Structures are written as SMILES.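 All cell lines were grown in 96-well plates and treated with compound for 48 hours. The concentration for full growth arrest is given as TGI.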

Experiment in all cases: inhibition of tumour cell growth, NCI panel, 48 h
In assay [1] the test system is MOLT-4 leukemia.
The test system of assay [2] is UACC-62 melanoma.
For assay [3], the system named is OVCAR-8 ovarian.
The test system of assay [4] is SNB-75 CNS.
The test system of assay [5] is A498 renal.
The subject of assay [6] is SK-OV-3 ovarian.
The test system of assay [7] is NCI-H23 lung.
The test system of assay [8] is HCC-2998 colon.
For assay [9], the system named is EKVX NSCLC.
Assay [10] concerns HOP-92 NSCLC.
For assay [11], the system named is MDA-MB-435.
The test system of assay [12] is IGROV1 ovarian.
Assay [13] deals with CAKI-1 renal.
Assay [14] has as its system TK-10 renal.
Assay [15] has as its system OVCAR-5 ovarian.
For assay [16], the system named is BT-549 breast.
The subject of assay [17] is SF-539 CNS.
Assay [18] concerns SK-MEL-28 melanoma.
For assay [19], the system named is M14 melanoma.

With `COC(=O)c1ccc(Oc2nc3ccc(C(F)(F)F)cc3nc2-c2ccccc2)cc1`, the TGI in [1], in [2], in assay [3], in [4], in assay [5] and in [6] was above 100 µM each time. In addition, the TGI in [7], in [8], in [9], in [10], in assay [11] and in [12] was above 100 µM throughout. In addition, the TGI in [13], in assay [14], in [15], in assay [16], in [17] and in assay [18] was above 100 µM in each case.

With `Cc1c(C)c(S(=O)(=O)N(CCCN)OCCCN)c(C)c2c1OC(C)(C)CC2`, the TGI was 14.9 µM in assay [1]; 28 µM in [2]; 29.8 µM in assay [3]; 23.4 µM in assay [4]; 26.2 µM in [5]; 29.8 µM in assay [6]. In addition, the TGI worked out at 27.9 µM in [7]; 21.2 µM in assay [8]; 30.4 µM in assay [9]; 19.9 µM in assay [10]; 29.6 µM in [11]; 20.3 µM in [12]. Also, the TGI in [13] was found to be 30.1 µM; in assay [14] it was 28 µM; in assay [15], 25.8 µM; in [16] it was 31.4 µM; in assay [19], 27.7 µM; in assay [18] it was 28.5 µM.

Consider `COc1cc(/C=C2\N=C(c3ccccc3)N(c3nc4ccccc4s3)C2=O)cc(OC)c1OC`, for which the TGI in assay [1] is 46.6 µM; in assay [3], above 100 µM; in assay [4] it was 61 µM; in assay [5] it was above 100 µM; in assay [7], above 100 µM; in [8] it was above 100 µM. Besides, the TGI was above 100 µM in assay [9]; 74.5 µM in assay [10]; 84.6 µM in assay [11]; above 100 µM in assay [12]; above 100 µM in [13]; above 100 µM in assay [14]. For the same compound, the TGI in assay [15] is above 100 µM; in [16], 59.4 µM; in [19] it was above 100 µM; in assay [17] it was above 100 µM; in assay [18], above 100 µM.

As for `Cc1ccc(N2C=Nn3c(nc4sc5c(c4c3=O)CCCC5)C2)cc1`, the TGI in assay [1], in assay [2], in [3], in assay [4], in assay [5] and in assay [6] was above 100 µM each time. The TGI in [7], in assay [8], in assay [9], in assay [10], in assay [11] and in assay [12] was above 100 µM each time. Further, the TGI in assay [13], in [14], in assay [15], in assay [16], in [19] and in [18] was above 100 µM in each case.

For `CC(=O)OC(OC(C)=O)c1c2ccccc2cc2ccccc12`, the TGI was 16.9 µM in [1]; 41.7 µM in assay [2]; 41.8 µM in [3]; 43.9 µM in [4]; 40.7 µM in assay [5]; 52.4 µM in [6]. In addition, the TGI in assay [7] is above 100 µM; in [8], 40.5 µM; in [9] it was 50.4 µM; in assay [10], 57.5 µM; in [11] it was above 100 µM; in [12], 55.9 µM. For the same compound, the TGI is above 100 µM in assay [13]; 61.2 µM in assay [14]; 75.6 µM in [15]; 32.9 µM in assay [16]; 44.8 µM in assay [19]; 36.1 µM in assay [17].

In the case of `CC(=O)OCCCCn1nncc1Cn1ccc(=O)n(Cc2cnnn2CCCCOC(C)=O)c1=O`, the TGI in [1], in assay [3], in assay [4], in [5], in assay [6] and in [7] was above 100 µM each time. The TGI in [8], in [9], in assay [10], in assay [11], in [12] and in assay [13] was above 100 µM each time. Further, the TGI in [14], in assay [15], in assay [16], in assay [19], in assay [17] and in assay [18] was above 100 µM each time.

Regarding `Cc1nc(-c2cccnc2)sc1C(=O)CC(=O)C(=O)Nc1cccc(NC(=O)C(=O)CC(=O)c2sc(-c3cccnc3)nc2C)n1`, the TGI in [1], in [2], in [3], in assay [4], in assay [5] and in [6] was above 100 µM in each case. The TGI in assay [7], in [8], in assay [9], in assay [10], in [11] and in assay [12] was above 100 µM throughout. Moreover, the TGI in assay [13], in [15], in [16], in assay [19], in assay [17] and in assay [18] was above 100 µM throughout.

For `CC(=O)/C(=C/N1CC(=O)NC1=S)C(=O)Nc1ccccc1C`, the TGI in assay [1], in [3], in [4], in assay [5], in [6] and in [7] was above 100 µM in each case. The TGI in [8], in assay [9], in assay [10], in [11], in assay [12] and in [13] was above 100 µM in each case. Besides, the TGI in assay [14], in assay [15], in [16], in assay [19], in [17] and in [18] was above 100 µM each time.
